This note sets out measurements from PubChem BioAssay (NCI).

Each structure is given as a SMILES string. “And” between values parts separate entries of the source, which are not always exact repeats. Equal values may be shown once.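 The compound was tested at five concentrations on cells cultured in 96-well plates, with a 48-hour exposure period. The concentration for 50% growth inhibition is given as GI50. TGI: concentration producing complete growth inhibition.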

Some test systems named below: CCRF-CEM leukemia; IGROV1 ovarian; SF-268 CNS; NCI-H23 lung; OVCAR-3 ovarian; OVCAR-8 ovarian; 786-0 renal; UO-31 renal; SN12C renal.
Holding throughout (assay): NCI anticancer screen, dose series, 48 h

For `CC/C=C\C[C@H](F)C/C=C1/C(=O)C=C[C@@H]1C/C=C\CCCC(=O)O`, the GI50 is 1.05 µM with CCRF-CEM leukemia; 9.97 µM in the experiment on IGROV1 ovarian; 6.55 µM with SF-268 CNS; 7.36 µM with NCI-H23 lung; 7.96 µM with OVCAR-3 ovarian; 1.21 µM in the experiment with OVCAR-8 ovarian. For the same compound, the GI50 is 7.24 µM in the experiment on 786-0 renal, 5.78 µM with UO-31 renal and 7.01 µM with SN12C renal. Moreover, the TGI with CCRF-CEM leukemia amounted to 11.1 µM; with IGROV1 ovarian, 32.1 µM; in the experiment on SF-268 CNS, 22.4 µM; in the experiment on NCI-H23 lung it was 20.4 µM; with OVCAR-3 ovarian it was 22.1 µM; in the experiment with OVCAR-8 ovarian it was 5.71 µM. Besides, the figures for the TGI in the experiment with 786-0 renal, in the experiment on UO-31 renal and in the experiment with SN12C renal were 13.3 µM, 12.4 µM and 20.5 µM, respectively.
As for `Nc1c(-c2ccc(Cl)cc2)[n+]([O-])c2ccccc2[n+]1[O-]`, the TGI in the experiment on CCRF-CEM leukemia, in the experiment on IGROV1 ovarian, in the experiment with SF-268 CNS, with NCI-H23 lung, with OVCAR-3 ovarian and in the experiment on OVCAR-8 ovarian was greater than 100 µM throughout. Also, the TGI in the experiment with 786-0 renal was greater than 100 µM; with UO-31 renal it was 55.3 µM; in the experiment with SN12C renal, greater than 100 µM.
In the case of `COc1cc2cc(Oc3ccc(NC(=O)Nc4ccc(Cl)c(C(F)(F)F)c4)cc3)c(C)nc2cc1OCCN1CCOCC1`, the GI50 was 1.45 µM in the experiment with CCRF-CEM leukemia; 2.43 µM with IGROV1 ovarian; 2.59 µM in the experiment with SF-268 CNS; 1.12 µM in the experiment with NCI-H23 lung; 1.52 µM with OVCAR-3 ovarian; 2.67 µM in the experiment on OVCAR-8 ovarian. Also, the GI50 is 1.89 µM in the experiment on 786-0 renal, 1.4 µM in the experiment on UO-31 renal and 2.56 µM with SN12C renal. Further, the TGI was greater than 100 µM in the experiment with CCRF-CEM leukemia; 23.2 µM in the experiment with IGROV1 ovarian; 8.44 µM in the experiment on SF-268 CNS; 3.89 µM in the experiment on NCI-H23 lung; 3.47 µM with OVCAR-3 ovarian; greater than 100 µM with OVCAR-8 ovarian. Also, the TGI in the experiment on 786-0 renal stood at 4.15 µM; with UO-31 renal, 3.34 µM; in the experiment on SN12C renal it was 56.2 µM.
As for `O=C(N/C(=C\c1cccc([N+](=O)[O-])c1)c1nc2ccc([N+](=O)[O-])cc2[nH]1)c1ccccc1`, the TGI in the experiment on CCRF-CEM leukemia was 87.6 µM; in the experiment on IGROV1 ovarian it was 74.4 µM; in the experiment on SF-268 CNS, greater than 100 µM; with NCI-H23 lung, greater than 100 µM; in the experiment on OVCAR-3 ovarian it was greater than 100 µM; with OVCAR-8 ovarian, greater than 100 µM. Further, the TGI was greater than 100 µM in the experiment with 786-0 renal, 58.9 µM in the experiment on UO-31 renal and greater than 100 µM in the experiment with SN12C renal.
Regarding `Nc1nccc(-c2c(-c3ccc(F)cc3)ncn2C2CCC(O)CC2)n1` (stereo unspecified), the GI50 in the experiment on CCRF-CEM leukemia is 13.4 µM; in the experiment with IGROV1 ovarian, 4.32 µM; in the experiment with SF-268 CNS it was 10.2 µM; with NCI-H23 lung, 9.77 µM; in the experiment with OVCAR-3 ovarian, 9.47 µM; in the experiment with OVCAR-8 ovarian, 12.3 µM. Further, the values for the GI50 with 786-0 renal, in the experiment on UO-31 renal and in the experiment with SN12C renal were 10.7 µM, 1.79 µM and 6.72 µM, respectively. Also, the TGI in the experiment on CCRF-CEM leukemia was greater than 25 µM; in the experiment on IGROV1 ovarian, 24.8 µM; in the experiment with SF-268 CNS, greater than 25 µM; with NCI-H23 lung it was greater than 25 µM; in the experiment on OVCAR-3 ovarian it was greater than 25 µM; in the experiment on OVCAR-8 ovarian it was greater than 25 µM. Besides, the TGI with 786-0 renal is greater than 25 µM; in the experiment on UO-31 renal it was greater than 23.2 µM; in the experiment on SN12C renal, greater than 25 µM.
As to `O/N=C/c1ncccc1C1OCCO1`, the TGI in the experiment with CCRF-CEM leukemia, in the experiment on IGROV1 ovarian, with SF-268 CNS, in the experiment with NCI-H23 lung, in the experiment with OVCAR-3 ovarian and in the experiment with OVCAR-8 ovarian was greater than 100 µM throughout. The TGI with 786-0 renal, with UO-31 renal and with SN12C renal was greater than 100 µM in each case.
Consider `Cc1ccc2c(c1)Sc1c(ccc3ccccc13)N2`, for which the GI50 is 12.4 µM with CCRF-CEM leukemia; 6.48 µM in the experiment on IGROV1 ovarian; 69.2 µM with SF-268 CNS; greater than 100 µM in the experiment with NCI-H23 lung; greater than 100 µM in the experiment with OVCAR-3 ovarian; 35 µM with OVCAR-8 ovarian. In addition, the GI50 with 786-0 renal is greater than 100 µM; with UO-31 renal, 3.82 µM; with SN12C renal, greater than 100 µM. The TGI with CCRF-CEM leukemia, in the experiment on IGROV1 ovarian, in the experiment on SF-268 CNS, in the experiment on NCI-H23 lung, in the experiment with OVCAR-3 ovarian and in the experiment on OVCAR-8 ovarian was greater than 100 µM each time. For the same compound, the TGI with 786-0 renal, with UO-31 renal and in the experiment on SN12C renal was greater than 100 µM in each case.
Turning to `O=C1C(Cl)=C(NCCN2CCOCC2)C(=O)c2ncccc21`, the GI50 was 2.34 µM in the experiment on CCRF-CEM leukemia; 1.71 µM in the experiment on IGROV1 ovarian; 3.8 µM in the experiment on SF-268 CNS; 1.25 µM with NCI-H23 lung; 2.5 µM in the experiment on 786-0 renal; 1.28 µM in the experiment on UO-31 renal. In addition, the GI50 with SN12C renal is 1.93 µM. Further, the TGI in the experiment with CCRF-CEM leukemia was 2.68 µM and 5.29 µM; with IGROV1 ovarian, 3.73 µM and 3.4 µM; with SF-268 CNS, 4.27 µM and 15.5 µM; with NCI-H23 lung, 3.75 µM and 3.52 µM; with OVCAR-3 ovarian, 3.69 µM and 3.01 µM; in the experiment on OVCAR-8 ovarian it was 3.79 µM and 3.29 µM. Besides, the TGI was 2.81 µM and 7.83 µM in the experiment on 786-0 renal; 3.03 µM and 2.61 µM in the experiment on UO-31 renal; 3.2 µM and 3.84 µM with SN12C renal.
In the case of `N#C/C(=C\c1ccc2ccccc2c1)c1ccccc1`, the TGI is 78.1 µM with CCRF-CEM leukemia; 37.3 µM in the experiment with IGROV1 ovarian; greater than 100 µM in the experiment with SF-268 CNS; greater than 100 µM in the experiment on NCI-H23 lung; 28.3 µM with OVCAR-3 ovarian; 96.7 µM in the experiment with OVCAR-8 ovarian. For the same compound, the figures for the TGI with 786-0 renal, in the experiment with UO-31 renal and in the experiment with SN12C renal were 41.3 µM, 86.7 µM and greater than 100 µM, respectively.
Turning to `COc1ccc2nc3c(C(=O)NCCN(C)C)cccc3nc2c1`, the TGI in the experiment with CCRF-CEM leukemia is greater than 100 µM; in the experiment with IGROV1 ovarian, 93.5 µM; in the experiment with SF-268 CNS it was 48.5 µM; with NCI-H23 lung, 24.7 µM; with OVCAR-3 ovarian it was 59.9 µM; in the experiment on OVCAR-8 ovarian, greater than 100 µM. Moreover, the TGI with 786-0 renal was greater than 100 µM; in the experiment on UO-31 renal, 47.9 µM; with SN12C renal, 22.5 µM.
In the case of `CCCC(=O)OCC1OC(n2cnc3c(=S)nc[nH]c32)C(OC(=O)CCC)C1OC(=O)CCC` (stereo unspecified), the GI50 was 1.79 µM in the experiment with CCRF-CEM leukemia; 10.3 µM with IGROV1 ovarian; 5.95 µM in the experiment on SF-268 CNS; 5.09 µM with NCI-H23 lung; 0.92 µM in the experiment on OVCAR-3 ovarian; 4.2 µM with OVCAR-8 ovarian. The GI50 with 786-0 renal is 3.46 µM; with UO-31 renal it was 7.53 µM; in the experiment on SN12C renal it was 4.58 µM. Besides, the TGI is 17.4 µM in the experiment with CCRF-CEM leukemia; greater than 100 µM in the experiment with IGROV1 ovarian; greater than 100 µM with SF-268 CNS; greater than 100 µM in the experiment with NCI-H23 lung; greater than 100 µM in the experiment with OVCAR-3 ovarian; greater than 100 µM in the experiment on OVCAR-8 ovarian. The TGI with 786-0 renal, in the experiment on UO-31 renal and in the experiment on SN12C renal was greater than 100 µM throughout.
